Results from publication PMC11785791, “Cryo-EM structure of the calcium-sensing receptor complexed with the kokumi substance γ-glutamyl-valyl-glycine” (Scientific Reports, 2025).
Positions count from the first letter of the chain named. Read-outs that look alike come from different tables or passages of the source. *1 amine or outer side, *2 acyl side, *3 side chain or, on linkers, in order; H or OH if unused. Where a SMILES comes first, the peptide text is derived from it. γGlu = O=C(O)[CH](CCC(=O)[*:2])N[*:1]

Tests used:
human CaSR N102F mutant = biological target: T1, human CaSR N102F mutant (Homo sapiens, UniProt P41180, N102F); assay: Calcium mobilization assay, CaSR N102F mutant; type: cell-based; settings: for Emax: read-out: Emax (% of wild-type values); for Response in calcium mobilization assay: in words, compared with wild type
T1 construct: (N); expressed in transfected cells; host or cells: PEAKrapid cells (ATCC), pcDNA 3.1, transient transfection
T1 sequence (P41180 20-1078 N102F): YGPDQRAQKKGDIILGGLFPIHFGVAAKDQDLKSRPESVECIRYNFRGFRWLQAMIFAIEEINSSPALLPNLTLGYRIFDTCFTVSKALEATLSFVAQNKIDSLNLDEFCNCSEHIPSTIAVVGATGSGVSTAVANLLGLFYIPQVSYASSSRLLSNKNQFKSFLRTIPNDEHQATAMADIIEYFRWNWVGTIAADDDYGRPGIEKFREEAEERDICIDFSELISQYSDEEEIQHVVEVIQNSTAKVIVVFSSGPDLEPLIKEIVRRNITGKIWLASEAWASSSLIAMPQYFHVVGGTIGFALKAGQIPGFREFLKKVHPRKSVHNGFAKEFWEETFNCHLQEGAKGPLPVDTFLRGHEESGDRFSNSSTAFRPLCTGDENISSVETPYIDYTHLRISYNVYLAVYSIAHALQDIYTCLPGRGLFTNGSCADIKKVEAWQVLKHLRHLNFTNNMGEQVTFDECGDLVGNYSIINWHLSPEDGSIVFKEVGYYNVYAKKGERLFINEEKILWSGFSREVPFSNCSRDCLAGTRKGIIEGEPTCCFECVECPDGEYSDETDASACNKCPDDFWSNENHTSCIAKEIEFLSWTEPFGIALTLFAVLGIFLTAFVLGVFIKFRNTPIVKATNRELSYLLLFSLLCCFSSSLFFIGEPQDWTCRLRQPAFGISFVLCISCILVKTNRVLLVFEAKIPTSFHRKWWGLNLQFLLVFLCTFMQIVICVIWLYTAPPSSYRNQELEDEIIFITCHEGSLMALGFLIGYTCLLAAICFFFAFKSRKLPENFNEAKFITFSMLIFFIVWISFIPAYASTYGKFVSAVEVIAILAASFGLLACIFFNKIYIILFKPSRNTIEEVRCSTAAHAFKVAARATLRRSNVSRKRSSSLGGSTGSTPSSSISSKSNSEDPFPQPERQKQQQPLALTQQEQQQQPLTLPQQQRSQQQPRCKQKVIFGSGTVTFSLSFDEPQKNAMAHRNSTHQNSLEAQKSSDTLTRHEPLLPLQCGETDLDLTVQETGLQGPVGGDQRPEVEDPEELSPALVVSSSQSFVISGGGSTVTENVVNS
Procedure: (§1) The CaSR receptor responsiveness was assessed by using PEAK^rapid cells (ATCC, Manassas, VA, USA) transiently transfected with the receptor DNA by the method reported by Kitajima et al.[6]. Briefly, human CaSR or its mutant cDNA with a signal sequence (MAFYSCCWVLLALTWHTSA) followed by FLAG-tag (DYKDDDDK) were inserted into pcDNA 3.1 expression vectors in Opti-MEM I medium (Thermo Fisher Scientific), mixed with FuGENE 6 (Roche), and poured onto PEAK^rapid cells grown at a submaximal concentration. After culturing for 24 h in 96-well plates, the cells were incubated with 5 µM Calcium-5 solution (Calcium-5 assay kit, Molecular Devices) for 45–60 min, and measurements were performed using a plate reader (FDSS/µCELL, Hamamatsu Photonics, Shizuoka, Japan) and its associated software. The activation of CaSR expressed in cells increases the intracellular Ca^2+ concentration, which is measured using a Ca^2+-sensitive dye. The binding of Ca^2+ to the Ca^2+-sensitive dye increases dye fluorescence, with excitation at 485 nm and emission at 525 nm. Test compounds were dissolved and administered in the assay buffer (146 mM NaCl, 1 mM MgSO4, 20 mM HEPES, 1 mM CaCl2, 2.5 mM probenecid, and 1.39 mM glucose, pH 7.4). Transiently transfected cells were challenged with compounds and compared with the vehicle alone and/or mock-transfected cells. The concentration dependence of the fluorescence intensity (influx of Ca^2+) was analyzed using the plate reader at 1 s intervals for 180 s. For the dose–response curve calculations, peak fluorescence responses after the addition of compounds were corrected for, normalized to the background fluorescence (ΔF/F = –F − F0)/F0), and baseline noise was subtracted. Dose–response curves were calculated by non-linear regression using GraphPad PRISM 8.0.

human CaSR R66E mutant = biological target: T2, human CaSR R66E mutant (Homo sapiens, UniProt P41180, R66E); assay: Calcium mobilization assay, CaSR R66E mutant; type: cell-based; settings: for Response in calcium mobilization assay: in words
T2 construct: (N); expressed in transfected cells; host or cells: PEAKrapid cells (ATCC), pcDNA 3.1, transient transfection
T2 sequence (P41180 20-1078 R66E): T1 sequence (P41180 20-1078 N102F) with R47E, F83N
Procedure: as §1

[1] = N102F mutant, mean ± s.e.m., n = 3, read-out: EC50

Response in calcium mobilization assay (human CaSR R66E mutant) | Emax (% of wild-type values) (human CaSR N102F mutant; N102F mutant) | EC50 (human CaSR N102F mutant; [1]) | Emax (% of wild-type values) (human CaSR R66E mutant) | EC50 (human CaSR R66E mutant; mean ± s.e.m., n = 3) | Response in calcium mobilization assay (human CaSR N102F mutant; N102F mutant) | Emax (human CaSR N102F mutant; N102F mutant) | Compound | EC50 of N102F mutant relative to wild-type EC50 (human CaSR N102F mutant; 6.52 / 0.18, N102F vs wild type) | EC50 (human CaSR N102F mutant; N102F mutant, read-out: EC50 of the N102F mutant) | Emax (human CaSR N102F mutant)
– | 87.8 % of WT | 2.75 ± 0.21 mM | 105.0 % of WT | 3.47 ± 0.4 mM | – | – | [Ca+2].[Cl-].[Cl-] [CaCl2] | – | – | –
no response | 194.8 % of WT | 0.00448 ± 0.0002 mM | – | – | more active than the wild type | – | CC(C)[C@H](NC(=O)CC[C@H](N)C(=O)O)C(=O)O [γ-EV, γ-glutamyl-valine] | – | – | –
no response | – | 2.16 ± 0.4 mM | – | – | more active than the wild type | 132% | N[C@@H](Cc1ccc(O)cc1)C(=O)O [L-Tyr, L-tyrosine] | – | – | –

Compound | Response in calcium mobilization assay (human CaSR R66E mutant) | Emax (% of wild-type values) (human CaSR N102F mutant; N102F mutant) | EC50 (human CaSR N102F mutant; [1]) | Emax (% of wild-type values) (human CaSR R66E mutant) | EC50 (human CaSR R66E mutant; mean ± s.e.m., n = 3) | Response in calcium mobilization assay (human CaSR N102F mutant; N102F mutant) | Emax (human CaSR N102F mutant; N102F mutant) | EC50 of N102F mutant relative to wild-type EC50 (human CaSR N102F mutant; 6.52 / 0.18, N102F vs wild type) | EC50 (human CaSR N102F mutant; N102F mutant, read-out: EC50 of the N102F mutant) | Emax (human CaSR N102F mutant)
CC(C)C(NC(=O)CCC(N)C(=O)O)C(=O)NCC(=O)O (stereo not drawn) [γ-EVG, γ-glutamyl-valyl-glycine] (γGlu-Val-Gly-OH; configuration not given here) | completely abolished the activity | – | – | – | – | – | – | approximately 36.2 fold | 0.00652 ± 0.0001 mM | 95.7%
